# From patent publication US11541050B2, “Pyrimidine derivatives for the treatment of viral infections” (JANSSEN SCIENCES IRELAND UC, priority 2011, dated 2023)
# Columns and labels:
# Format in all cases: cell-based
# Parameters in all cases: unit not given here
# [1] = biological target: T1, human TLR7 (wild type sequence) (Homo sapiens, UniProt Q9NYK1); assay: TLR7 cellular NFκB-luc reporter assay, wild type TLR7; settings: lowest effective concentration, wild type TLR7
# T1 construct: expressed in transfected cells; host or cells: HEK293
# T1 sequence (Q9NYK1 27-1049): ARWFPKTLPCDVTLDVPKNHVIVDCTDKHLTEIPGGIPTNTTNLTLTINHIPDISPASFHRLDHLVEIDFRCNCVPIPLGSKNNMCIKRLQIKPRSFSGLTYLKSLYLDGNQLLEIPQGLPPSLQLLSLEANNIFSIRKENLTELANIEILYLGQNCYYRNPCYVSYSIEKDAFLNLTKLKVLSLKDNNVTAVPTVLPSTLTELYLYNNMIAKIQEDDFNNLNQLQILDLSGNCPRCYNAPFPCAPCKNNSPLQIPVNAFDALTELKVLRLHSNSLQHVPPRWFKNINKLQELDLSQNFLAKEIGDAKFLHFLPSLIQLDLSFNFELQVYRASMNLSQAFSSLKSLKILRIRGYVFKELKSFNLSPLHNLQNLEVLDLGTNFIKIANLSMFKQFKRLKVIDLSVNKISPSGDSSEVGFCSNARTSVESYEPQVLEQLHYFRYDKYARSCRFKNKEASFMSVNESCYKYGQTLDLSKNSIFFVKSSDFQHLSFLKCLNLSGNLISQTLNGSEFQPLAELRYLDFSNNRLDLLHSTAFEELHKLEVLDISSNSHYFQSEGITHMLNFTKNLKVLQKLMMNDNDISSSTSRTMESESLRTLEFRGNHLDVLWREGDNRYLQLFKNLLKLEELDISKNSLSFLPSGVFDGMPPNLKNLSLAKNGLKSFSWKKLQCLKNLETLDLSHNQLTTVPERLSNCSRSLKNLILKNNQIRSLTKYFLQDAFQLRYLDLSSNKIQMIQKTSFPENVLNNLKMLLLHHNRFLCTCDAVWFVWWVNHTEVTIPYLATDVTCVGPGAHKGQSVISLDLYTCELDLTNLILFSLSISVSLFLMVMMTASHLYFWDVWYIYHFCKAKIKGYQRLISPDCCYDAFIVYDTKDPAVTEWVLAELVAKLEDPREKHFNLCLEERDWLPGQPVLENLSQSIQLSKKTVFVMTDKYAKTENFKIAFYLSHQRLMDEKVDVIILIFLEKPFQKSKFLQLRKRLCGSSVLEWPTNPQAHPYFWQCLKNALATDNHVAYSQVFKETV
# Method in brief: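 HEK293 cells transiently co-transfected (48 h, 37 °C) with CMV-TLR7 or TLR8 plasmid (wild type or second-LRR deletion mutant) plus NFκB-luc reporter. Cells exposed to compound for 6 h at 37 °C, 5% CO2; luciferase read-out. LEC from quadruplicate dose-response curves: concentration giving effect at least two fold above assay standard deviation.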
# [2] = tested on: human TLR7 mutant sequence comprising a deletion in the second leucine-rich repeat; assay: TLR7 cellular NFκB-luc reporter assay, mutant TLR7 with deletion in the second leucine-rich repeat; settings: lowest effective concentration
# Method: (§1) The ability of compounds to activate human TLR7 and/or TLR8 was assessed in a cellular reporter assay using HEK293 cells transiently transfected with a TLR7 or TLR8 expression vector and NFκB-luc reporter construct. In one instance the TLR expression construct expresses the respective wild type sequence or a mutant sequence comprising a deletion in the second leucine-rich repeat of the TLR.
# (§2) Briefly, HEK293 cells were grown in culture medium (DMEM supplemented with 10% FCS and 2 mM Glutamine). For transfection of cells in 10 cm dishes, cells were detached with Trypsin-EDTA, transfected with a mix of CMV-TLR7 or TLR8 plasmid (750 ng), NFκB-luc plasmid (375 ng) and a transfection reagent and incubated for 48 hours at 37° C. in a humidified 5% CO2 atmosphere. […] Thirty microliters of cells were then dispensed into each well in 384-well plates, where 10 μL of compound in 4% DMSO was already present. Following 6 hours incubation at 37° C., 5% CO2, the luciferase activity was determined by adding 15 μl of Steady Lite Plus substrate (Perkin Elmer) to each well and readout performed on a ViewLux ultraHTS microplate imager (Perkin Elmer). Dose response curves were generated from measurements performed in quadruplicates.
# [3] = tested on: human TLR8 mutant sequence comprising a deletion in the second leucine-rich repeat; assay: TLR8 cellular NFκB-luc reporter assay, mutant TLR8 with deletion in the second leucine-rich repeat; settings: lowest effective concentration
# Method: as §1, §2
compound,measurement,setting,value
CCC[C@@H](CO)Nc1nc(N)ncc1OCc1cccnn1 [Compound 277],TLR7-wt_LEC,[1],1.180
same,TLR7-dIRR2_LEC,[2],0.438
same,TLR8-dIRR2_LEC,[3],0.135
CCCC[C@@H](CCO)Nc1nc(N)ncc1OCc1cccnn1 [Compound 280],TLR7-wt_LEC,[1],0.392
same,TLR7-dIRR2_LEC,[2],1.450
same,TLR8-dIRR2_LEC,[3],0.038
CCCC[C@@H](CCO)Nc1nc(N)ncc1OCc1cc(C)n(C)n1 [Compound 237],TLR7-wt_LEC,[1],0.156
same,TLR7-dIRR2_LEC,[2],1.830
same,TLR8-dIRR2_LEC,[3],0.051
CCCC[C@@H](CCO)Nc1nc(N)ncc1OCc1ccncc1 [Compound 291],TLR7-wt_LEC,[1],0.120
same,TLR7-dIRR2_LEC,[2],0.407
same,TLR8-dIRR2_LEC,[3],0.106
CCCC(C)Nc1nc(N)ncc1OCCOC (stereo not drawn) [Compound 267],TLR7-wt_LEC,[1],4.880
same,TLR7-dIRR2_LEC,[2],0.719
same,TLR8-dIRR2_LEC,[3],1.710
CCCCNc1nc(N)ncc1OCCN1CCOCC1 [Compound 269],TLR7-wt_LEC,[1],24.550
same,TLR7-dIRR2_LEC,[2],8.280
same,TLR8-dIRR2_LEC,[3],9.750
CCCC[C@@H](CO)Nc1nc(N)ncc1OCc1ccccn1 [Compound 243],TLR7-wt_LEC,[1],0.343
same,TLR7-dIRR2_LEC,[2],0.103
same,TLR8-dIRR2_LEC,[3],0.190
CCCC[C@@H](CCO)Nc1nc(N)ncc1OCc1cccc(C(N)=O)n1 [Compound 282],TLR7-wt_LEC,[1],0.133
same,TLR7-dIRR2_LEC,[2],0.502
same,TLR8-dIRR2_LEC,[3],0.005
CCCC[C@@H](CCO)Nc1nc(N)ncc1OCc1nn(C)c2ccccc12 [Compound 240],TLR7-wt_LEC,[1],0.008
same,TLR7-dIRR2_LEC,[2],0.442
same,TLR8-dIRR2_LEC,[3],0.005
CCCC[C@@H](CO)Nc1nc(N)ncc1OCc1nccc(OC)c1OC [Compound 217],TLR7-wt_LEC,[1],0.106
same,TLR7-dIRR2_LEC,[2],0.433
same,TLR8-dIRR2_LEC,[3],0.007
CCCC[C@@H](CCO)Nc1nc(N)ncc1OCc1ccccn1 [Compound 294],TLR7-wt_LEC,[1],0.133
same,TLR7-dIRR2_LEC,[2],0.521
same,TLR8-dIRR2_LEC,[3],0.042
CCC[C@@H](CO)Nc1nc(N)ncc1OCc1cccc(C(N)=O)n1 [Compound 256],TLR7-wt_LEC,[1],1.630
same,TLR7-dIRR2_LEC,[2],0.100
same,TLR8-dIRR2_LEC,[3],0.039
CCC[C@@H](CO)Nc1nc(N)ncc1OCc1nccc(OC)c1OC [Compound 214],TLR7-wt_LEC,[1],0.134
same,TLR7-dIRR2_LEC,[2],0.593
same,TLR8-dIRR2_LEC,[3],0.027
CCCCNc1nc(N)ncc1OCCNC(=O)OCC [Compound 232],TLR7-wt_LEC,[1],0.967
same,TLR7-dIRR2_LEC,[2],1.680
same,TLR8-dIRR2_LEC,[3],0.110
CCC[C@@H](CO)Nc1nc(N)ncc1OCc1cc2ccccc2cn1 [Compound 258],TLR7-wt_LEC,[1],0.074
same,TLR7-dIRR2_LEC,[2],0.153
same,TLR8-dIRR2_LEC,[3],0.060
CCCCNc1nc(N)ncc1OCC1CCOC1 (stereo not drawn) [Compound 235],TLR7-wt_LEC,[1],>25
same,TLR7-dIRR2_LEC,[2],10.410
same,TLR8-dIRR2_LEC,[3],1.890
CCCC[C@@H](CCO)Nc1nc(N)ncc1OCCCc1ccc(OC)cc1 [Compound 225],TLR7-wt_LEC,[1],0.385
same,TLR7-dIRR2_LEC,[2],2.180
same,TLR8-dIRR2_LEC,[3],0.129
CCCCNc1nc(N)ncc1OCCOCC(F)(F)F [Compound 276],TLR7-wt_LEC,[1],3.260
same,TLR7-dIRR2_LEC,[2],0.707
same,TLR8-dIRR2_LEC,[3],0.652
CCCC[C@@H](CCO)Nc1nc(N)ncc1OCc1c[nH]nn1 [Compound 298],TLR7-wt_LEC,[1],0.394
same,TLR7-dIRR2_LEC,[2],2.840
same,TLR8-dIRR2_LEC,[3],0.058
CCC[C@@H](CCO)Nc1nc(N)ncc1OCc1cccc(C(N)=O)n1 [Compound 270],TLR7-wt_LEC,[1],0.109
same,TLR7-dIRR2_LEC,[2],0.131
same,TLR8-dIRR2_LEC,[3],0.006
CCCC[C@@H](CCO)Nc1nc(N)ncc1OCCOC(C)C [Compound 296],TLR7-wt_LEC,[1],0.664
same,TLR7-dIRR2_LEC,[2],2.540
same,TLR8-dIRR2_LEC,[3],0.310
C#CCOc1cnc(N)nc1NCCCC [Compound 248],TLR7-wt_LEC,[1],2.120
same,TLR7-dIRR2_LEC,[2],0.654
same,TLR8-dIRR2_LEC,[3],0.529
CCC[C@@H](CO)Nc1nc(N)ncc1OCc1cc(C)n(C)n1 [Compound 257],TLR7-wt_LEC,[1],0.697
same,TLR7-dIRR2_LEC,[2],0.444
same,TLR8-dIRR2_LEC,[3],0.304
CCCC[C@@H](CCO)Nc1nc(N)ncc1OCc1ncc(C)c(O)c1C [Compound 242],TLR7-wt_LEC,[1],5.400
same,TLR7-dIRR2_LEC,[2],3.010
same,TLR8-dIRR2_LEC,[3],0.006
CCCC(C)Nc1nc(N)ncc1OCCCc1ccc2c(c1)OCO2 (stereo not drawn) [Compound 265],TLR7-wt_LEC,[1],0.752
same,TLR7-dIRR2_LEC,[2],3.700
same,TLR8-dIRR2_LEC,[3],0.591
CCCCNc1nc(N)ncc1OCCOCC(C)C [Compound 289],TLR7-wt_LEC,[1],0.875
same,TLR7-dIRR2_LEC,[2],0.930
same,TLR8-dIRR2_LEC,[3],0.647
CCCCNc1nc(N)ncc1OCC(C)O (stereo not drawn) [Compound 290],TLR7-wt_LEC,[1],>25
same,TLR7-dIRR2_LEC,[2],9.110
same,TLR8-dIRR2_LEC,[3],12.460
CCCC[C@@H](CCO)Nc1nc(N)ncc1OCc1nnn[nH]1 [Compound 297],TLR7-wt_LEC,[1],2.810
same,TLR7-dIRR2_LEC,[2],>25
same,TLR8-dIRR2_LEC,[3],2.540
CCC[C@@H](CO)Nc1nc(N)ncc1OCc1ccccn1 [Compound 239],TLR7-wt_LEC,[1],0.464
same,TLR7-dIRR2_LEC,[2],0.247
same,TLR8-dIRR2_LEC,[3],0.145
CCC[C@@H](CCO)Nc1nc(N)ncc1OCCCc1ccc(OC)cc1 [Compound 226],TLR7-wt_LEC,[1],0.274
same,TLR7-dIRR2_LEC,[2],1.050
same,TLR8-dIRR2_LEC,[3],0.036
CCCCNc1nc(N)ncc1OC[C@H](C)OC [Compound 287],TLR7-wt_LEC,[1],15.530
same,TLR7-dIRR2_LEC,[2],5.380
same,TLR8-dIRR2_LEC,[3],3.560
CCCCNc1nc(N)ncc1OCCOC(C)C [Compound 234],TLR7-wt_LEC,[1],1.850
same,TLR7-dIRR2_LEC,[2],1.170
same,TLR8-dIRR2_LEC,[3],0.464
CCC[C@@H](CCO)Nc1nc(N)ncc1OCc1cccnn1 [Compound 279],TLR7-wt_LEC,[1],0.724
same,TLR7-dIRR2_LEC,[2],1.100
same,TLR8-dIRR2_LEC,[3],0.034
CCCC[C@@H](CCO)Nc1nc(N)ncc1OCc1ncccc1OC [Compound 241],TLR7-wt_LEC,[1],0.008
same,TLR7-dIRR2_LEC,[2],0.304
same,TLR8-dIRR2_LEC,[3],0.004
CCC[C@@H](CCO)Nc1nc(N)ncc1OCc1cc(C)n(C)n1 [Compound 246],TLR7-wt_LEC,[1],0.157
same,TLR7-dIRR2_LEC,[2],1.150
same,TLR8-dIRR2_LEC,[3],0.048
CCC[C@@H](CO)Nc1nc(N)ncc1OCc1cn2ccccc2n1 [Compound 215],TLR7-wt_LEC,[1],0.171
same,TLR7-dIRR2_LEC,[2],0.300
same,TLR8-dIRR2_LEC,[3],0.029
CCC[C@@H](CCO)Nc1nc(N)ncc1OCCCc1ccc2c(c1)OCO2 [Compound 238],TLR7-wt_LEC,[1],0.234
same,TLR7-dIRR2_LEC,[2],1.920
same,TLR8-dIRR2_LEC,[3],0.091
CCC[C@@H](CCO)Nc1nc(N)ncc1OCc1cn(-c2ccccc2)nn1 [Compound 285],TLR7-wt_LEC,[1],0.266
same,TLR7-dIRR2_LEC,[2],0.530
same,TLR8-dIRR2_LEC,[3],0.036
CCC[C@@H](CCO)Nc1nc(N)ncc1OCCOC [Compound 268],TLR7-wt_LEC,[1],2.100
same,TLR7-dIRR2_LEC,[2],1.800
same,TLR8-dIRR2_LEC,[3],1.170
CCCC[C@@H](CO)Nc1nc(N)ncc1OCc1cccc(C(=O)O)n1 [Compound 259],TLR7-wt_LEC,[1],6.980
same,TLR7-dIRR2_LEC,[2],3.150
same,TLR8-dIRR2_LEC,[3],1.250
CCC[C@@H](CCO)Nc1nc(N)ncc1OCc1cccc(C)n1 [Compound 227],TLR7-wt_LEC,[1],0.170
same,TLR7-dIRR2_LEC,[2],0.717
same,TLR8-dIRR2_LEC,[3],0.030
CCCC[C@@H](CCO)Nc1nc(N)ncc1OCc1cccnc1 [Compound 272],TLR7-wt_LEC,[1],0.207
same,TLR7-dIRR2_LEC,[2],1.110
same,TLR8-dIRR2_LEC,[3],0.084
